This experiment deals with Tribonema sp. CCAP880/2. The experiment can be described thus: Poison Plate Assay (algal growth inhibition, MIC and synergy index). Format: cell-based. Particulars: 336 h, BG11 liquid medium, 24-well plates, 21° C., evaluation after 2 weeks of exposure, total ppm of combination at given ratio (I) to (II), read-out: MIC-values in ppm (minimum inhibitory concentration). The procedure: • General procedure: to each well of a 24-well microtiter plate, 1990 μl BG11 medium containing the test compounds in one of the concentrations of a dose series is added. The liquid freshwater mineral medium is inoculated by adding an aliquot of an actively growing, 3 week old liquid BG11 culture of algae and incubated at 21° C., 65% relative humidity, 1000 Lux 16 hr/day. The growth is evaluated after two weeks. • Test compounds: 4-bromo-2-(4-chloro-phenyl)-5-(trifluoromethyl)-1H-pyrrole-3-carbonitrile as component (I) butylBIT as component (II); • Stock solution: 8000 and 80.000 ppm in DMSO
• Test combinations: • Concentrations: 1.6-1.2-0.9-0.68-0.51-0.38-0.29-0.21-0.16-0.12-0.09-0.07 ppm • Culture medium: algae: BG 11 liquid mineral medium • Experimental set up: 24-well plates • Species of algae: Tribonema sp. CCAP880/2 • Inoculum: algae: […] of a 1/10 dilution in BG 11 of a two week old culture • Culture conditions: 21° C., 65% relative humidity, 1000 lux, 16 hour photoperiod • Evaluation: algae: after 2 weeks of exposure
Synergism between component (I) and one of the components (II) was determined by a commonly used and accepted method described by Kull F. C. et al. in Applied Microbiology, 9, 538-541 (1961) using the Synergy Index, which is calculated as follows for two compounds A and B: […]

These results are taken from patent publication US20110237632A1, “ANTIFOULING COMBINATION COMPRISING 4-BROMO-2-(4- CHLOROPHENYL)-5-(TRIFLUOROMETHYL)-1H-PYRROLE-3-CARBONITRILE” (priority 2008, published 2011).

Regarding `CCCCn1sc2ccccc2c1=O` [(I) + (II) 0 + 100, 2-butyl-1,2-benzisothiazol-3(2H)one], the MIC worked out at 2.1 µg/mL.
